Assays:
[1] = test system: platelet/fibrin clot dynamics; test: Thrombelastography (TEG), cup with or without HUVEC coating; settings: re-calcified citrated whole blood
Protocol: Thrombelastography (TEG) was performed in either citrated whole blood after re-calcification. The blood samples were mixed with 3.8% tri-sodium citrate solution (one part citrate solution to 9 parts blood) as anticoagulant. The citrated whole blood was re-calcified by adding 0.4 ml isotonic calcium chloride solution. An aliquot of 0.36 ml of the re-calcified whole blood was transferred to the pre-warmed cup (Coated with monolayer of HUVEC or not) of the thrombelastograph. The following measurements were the standard variables of TEG: (i) Reaction time (R): the time from sample placement in the cup until onset of clotting (defined as amplitude of 1 mm). This represents the rate of initial fibrin formation; (ii) Maximum amplitude (MA): greatest amplitude on the TEG trace, wherein MA represents the absolute strength of the fibrin clot and is a direct function of the maximum dynamic strength of fibrin and platelets.

[2] = Mortality of treated SCD mice; assay type: in vivo; settings: LMWH 5 mg/kg daily, % of the group's mice
Protocol: (§1) Each category of mice (wild or SCD) was divided into three groups. Basal blood samples were taken by retro orbital venipuncture under anesthesia with citrated micro-hematocrit tubes, before the treatment administration. The three groups in each category were treated subcutaneously with LMWH (5 mg/kg), SNACH (20 mg/kg), and PSI (10 mg/kg). Compounds were administered daily for 7 days, and follow up blood samples were drawn daily after 1 hour of treatment administration. Immediately after collection, blood was centrifuged at 800×g for 5 minutes and plasma was collected and stored at −80° C.

Bleeding time in mice = assay type: in vivo
[3] = test system: endogenous pathway of coagulation; test: aPTT in citrated plasma; settings: SNACH 1-10 uM
Protocol: To 0.1 ml of citrated plasma 0.1 ml of human placenta lipid is added and the mixture is incubated for 2 min at 37° C. The coagulation process is initiated by the addition of 0.1 ml 25 mM calcium chloride and the time to clot formation is determined. The aPTT measures effects on the endogenous pathway of coagulation.

P-selectin = P-selectin levels in plasma of transgenic sickle cell mice; assay type: in vivo; settings: daily subcutaneous treatment for 7 days, LMWH 5 mg/kg, SNACH (NACH) 20 mg/kg
Source text: (§2) Transgenic SCD model mice (stock #013071) of aged-matched female were obtained from The Jackson Laboratory (Bar Harbor, Me.) in addition to wild mice as controls. Genetically, transgenic mice were designed with the human hemoglobin gamma (^Ay) gene and the human sickle hemoglobin beta (β^S) gene replacing the endogenous mouse major and minor β-globin.
as §1

[4] = test system: adhesion of sickle RBCs to endothelial cells (HUVECs); test: Static adhesion assay of PKH67-labeled sickle RBCs on TNF-α-treated HUVECs; assay type: cell-based, human; settings: HUVECs treated with TNF-α 10 ng/ml; PSI 10 μg/ml, LMWH & SNACH 40 μg/ml
Protocol: Using gelatin-coated culture flasks, HUVEC were cultured in EGM complete media supplemented with 2 ml bovine brain extract (BBE), and passaged when 80% confluent using trypsin/EDTA solution according to the manufacturers' instructions. Cells from passages 2 to 6 were used for adhesion assay experiments. Cells were sub-cultured in a 96-well plate pre-coated with collagen with a number of 20,000 cells per well, and were left for 24 hours at 37° C. in a CO2 (5%) incubator to form a confluent monolayer.
Normal and sickle blood samples were collected in EDTA tubes from the antecubital vein of healthy volunteers and homozygous sickle cell patients, respectively. […] Packed RBCs were washed once with PBS, and counted using a CBC analyzer. […]
After HUVECs formed a confluent monolayer in the plate's wells, the experiment was designed to include five groups in […]: medium only (negative control), TNF-α only (positive control), or TNF-α with the treatment compounds: LMWH, SNACH, and PSI. […] Non-adherent RBCs were removed with PBS wash, and then 150 μl of complete medium were added for plate reading.
In order to quantitate endothelial-adherent RBCs by the fluorescence plate reader, serial two-fold dilutions of PKH67-labeled RBC samples were prepared from 2×10^6 to 0.16×10^6 RBCs/well. […] fluorescence was detectable with as few as 10^4 RBCs. […]

ICAM-1 = ICAM-1 levels in plasma of transgenic sickle cell mice; assay type: in vivo; settings: daily subcutaneous treatment for 7 days, LMWH 5 mg/kg, SNACH (NACH) 20 mg/kg, PSI-14 10 mg/kg
Source text: as §2, §1
Levels of adhesion biomarker ICAM-1 were measured in mice plasma using the Bio-Plex 200 systems. Assay kit (171-304080M) was obtained from Bio-Rad (Hercules, Calif.) and the experiment was conducted following the provided instructions. The assay principle is based on the concept of sandwich ELISA where magnetic beads are covalently bound to the capture antibodies that react to the targeted biomarker. […]

NFkB = test: NF-KB luciferase reporter assay; assay type: cell-based; settings: NF-KB Luciferase Reporter Hela Stable cells, 1 μL, 10 μL and 100 μL, two hours
Protocol: The Luciferase Assay System was purchased from Promega (Madison, Wis., USA). NF-KB Luciferase Reporter Hela Stable cells were seeded at 10^4 cells/well in 96-well plate and incubated for 24 hours. Then, growth media was removed. Next, SNACH, tinzaparin or Poly-Arginine NPs were added at concentrations of 1 μL, 10 μL and 100 μL in triplicate and incubated at 36° C. for two hours. After two hours, cells were washed with PBS. Lysis buffer was prepared following a generic protocol. 0.5 mL of lysis buffer was mixed with 2 mL of PBS. Next, the lysis buffer's solution was added to each well. Afterward, the 96-well plate was rocked several times using a shaker. Cells and liquid were collected for centrifugation at 1200×g for 5 minutes at 4° C. The supernatant was removed and stored at −80° C. One week later, the 96-well plate was placed in the luminometer containing 20 μL of lysis buffer and 100 μL of luciferase assay reagent/well. The light was measured for a period of 10 seconds with a delay time of 2 seconds.

factor Xa = test: Anti-Xa in dosed mice; assay type: in vivo; settings: subcutaneous, SNACH 0.1-40 mg/Kg, tinzaparin 0.1-5.0 mg/Kg
aPTT in dosed mice = assay type: in vivo; settings: subcutaneous, SNACH 0.1-40 mg/Kg, tinzaparin 0.1-5.0 mg/Kg

Q: With tinzaparin [LMWH] as the substance, how does the “platelet/fibrin clot dynamics (TEG)” value ([1]; absence of endothelial cell coating of cup) read?
A: suppression of platelet/fibrin clot dynamics

Q: What about the “platelet/fibrin clot dynamics (TEG)” value ([1]; presence of endothelial cell (HUVEC) coating of cup) of the same substance?
A: suppression of platelet/fibrin clot dynamics

Q: And the “mortality rate (bleeding complications)” value [2]?
A: 75%

Q: And the bleeding time (Bleeding time in mice; subcutaneous, SNACH 0.1-40 mg/Kg, tinzaparin 0.1-5.0 mg/Kg)?
A: maximal increase in bleeding time

Q: And the “finding at site of injection” value (Bleeding time in mice; tinzaparin 0.1-5.0 mg/Kg subcutaneously)?
A: browsing at site of injection

Q: What about the “effect on aPTT” value [3] of the same substance?
A: concentration dependent increase in aPTT

Q: What about the “decrease of P-selectin levels in plasma” value (P-selectin) of the same substance?
A: ~15%

Q: What about the “adhesion of sickle RBCs to the endothelial layer compared to TNF-α only (positive control)” value [4] of the same substance?
A: did not show a decrease in the adhesion that could be considered statistically significant

Q: What about the “ICAM-1 levels in plasma at multiple time points” value (ICAM-1) of the same substance?
A: showed a decrease only on the first and third days of treatment

Q: What about the NFkB activation (NFkB) of the same substance?
A: significant concentration-dependent suppression of NFkB activation

Q: And the anti-Xa (factor Xa)?
A: inhibition of factor Xa

Q: And the aPTT (aPTT in dosed mice)?
A: increase in aPTT
